Assay results taken from patent US20150368248A1, “2-SUBSTITUTED-6-BIARYLMETHYLAMINO-9-CYCLOPENTYL-9H-PURINE DERIVATIVES, USE THEREOF AS MEDICAMENTS, AND PHARMACEUTICAL COMPOSITIONS” (UNIVERZITA PALACKEHO V OLOMOUCI, priority 2013, published 2015).

Key:
[1] = test system: HepG2 and PLC cells; experiment: Clonogenic survival assay; assay type: cell-based, human; conditions: 0.2 μM
Description: To analyze the clonogenic growth behavior of cell populations on tissue culture plastic, 500 cells were seeded in a 6-well plate and, either untreated or pretreated with BA-12 or BP-14 for 24 hours, incubated with standard medium for 10 days at 37° C. and 5% CO2. Colonies were fixed with methanol/acetic acid (3:1) and stained with 0.25% crystal violet. The crystal violet of fixed cells was solubilized with 1% SDS and the absorbance was photometrically determined at 560 nm.

[2] = test system: PLC/PRF/5 (PLC); experiment: MTT cell viability assay (Example 40); assay type: cell-based; conditions: Homo sapiens, 72 hours
Description: (§1) The human hepatoma cell lines and HepG2, PLC/PRF/5 (PLC), Hep3B and 3sp (formerly described as HCC-1.1) were cultivated in RPMI 1640 and 10% fetal calf serum (FCS) as described (31, 32). All cells were kept at 37° C. and 5% CO2 and were routinely screened for the absence of mycoplasma.
(§2) Cell viability was determined using the 3-(4,5 dimethylthiazol-2-yl)-2,5-diphenyltetrazolium bromide (MTT) assay. Briefly, cells were seeded in triplicates at a density of 6×10^3 cells per well. After 24 hours, cells were incubated with drug-containing medium for 72 hours. Cells were incubated with MTT solution (5 mg/ml; Sigma, St. Louis, USA) and medium was replaced with DMSO after five hours. The absorbance was measured at 620 nm by employing a microplate reader (Asys HiTech, Salzburg, Austria). MTT assays were repeated 3 times for each drug application and untreated cells were used as reference. IC50 values were obtained by log-linear interpolation of data points and are depicted by dose-response curves using the software GraphPad Prism® 5.01.

[3] = test system: Hep3B; experiment: MTT cell viability assay (Example 40); assay type: cell-based; conditions: Homo sapiens, 72 hours
Description: as §1, §2

[4] = test system: HepG2; experiment: MTT cell viability assay (Example 40); assay type: cell-based; conditions: Homo sapiens, 72 hours
Description: as §1, §2

[5] = test system: 3sp (formerly described as HCC-1.1); experiment: MTT cell viability assay (Example 40); assay type: cell-based; conditions: Homo sapiens, 72 hours
Description: as §1, §2

[6] = test system: primary human hepatocytes (PHHs); experiment: MTT cell viability assay (Example 40); assay type: cell-based; conditions: Hepatocyte
Description: Non-neoplastic tissue samples from liver resections were obtained from patients undergoing partial hepatectomy for metastatic liver tumors of colorectal cancer. Experimental procedures were performed according to the guidelines of the charitable state controlled foundation HTCR (Human Tissue and Cell Research, Regensburg, Germany), with the informed patient's consent approved by the local ethical committee of the University of Regensburg. PHHs were isolated using a modified two-step EGTA/collagenase perfusion procedure as described previously (33). Viability of isolated PHHs was determined by trypan blue exclusion and cells with a viability of more than 85% were used for further work. Cells were plated on collagen-coated plates (BD Biosciences, San Jose, USA) at a density of 1.2×10^5 cells/cm^2. The medium consisted of DMEM with 10% FCS, 2 mM L-glutamine, […], 100 U/ml penicillin and supplements as follows: 125 mU/ml insulin, 7.3 ng/ml glucagon and 0.8 μg/ml hydrocortisone. Cells were incubated at 37° C. in a humidified incubator with 5% CO2 and media were changed daily.
Cell viability was determined using the 3-(4,5 dimethylthiazol-2-yl)-2,5-diphenyltetrazolium bromide (MTT) assay. Briefly, cells were seeded in triplicates at a density of 6×10^3 cells per well. […] The absorbance was measured at 620 nm by employing a microplate reader (Asys HiTech, Salzburg, Austria). […]

[7] = test system: Mcl-1; experiment: Immunoblot analysis of anti-apoptotic protein Mcl-1; assay type: cell-based; conditions: Hep3B, PLC/PRF/5 and AKH3p cell lines, 24 hours
Description: Effect of BP14 on cell apoptosis was complemented by immunoblot analysis of selected apoptotic proteins. For immunoblotting, cell were detached with rubber policeman and washed three times with ice-cold PBS and lysed in buffer (50 mM Tris, pH 7.4, 250 mM NaCl, 5 mM EDTA, 50 mM NaF, 1 mM Na3VO4, 1% Nonidet P40) containing mixture of protease and phosphatase inhibitors (Sigma-Aldrich, USA). 20 μg of total proteins were separated by SDS-polyacrylamide gel electrophoresis (SDS-PAGE) and transferred onto nitrocellulose membranes. Membranes were blocked in 5% milk and 0.1% Tween 20 in PBS and probed overnight with specific antibodies for PARP-1 (clone F-2; Santa Cruz Biotechnology, USA), Mcl-1 (S-19; Santa Cruz Biotechnology, USA) and β-actin (C-4, Santa Cruz Biotechnology, USA). All primary antibodies were diluted in PBS containing 5% powdered milk; 0.1% Tween 20. Peroxidase conjugated rabbit anti-mouse immunoglobulin or porcine anti-rabbit immunoglobulin antisera (DAKO, Denmark) were used as the secondary antibodies and visualised with ECL reagents (Amersham-Pharmacia, Little Chalfont, UK).

[8] = test system: Hep3B; experiment: Determination of long-term chemosensitivity (MTT); assay type: cell-based; conditions: Homo sapiens
Description: as §2
(§3) The selection of chemoresistant cells was monitored every 6 weeks by the determination of IC50 values using the MTT assay. HCC cells showing higher IC50 values after treatment with inhibitors as compared to untreated cells are considered as chemoresistant.

[9] = test system: HepG2; experiment: Determination of long-term chemosensitivity (MTT); assay type: cell-based; conditions: Homo sapiens, read-out: IC50 for BP14, HepG2
Description: as §2, §3

[10] = test system: HepG2 and PLC cells; experiment: Flow cytometry of cellular DNA content; assay type: cell-based, human; conditions: 24 hours
Description: The analysis of cellular DNA content was performed with a multicolor BD LSRFortessa cell analyzer (Becton Dickinson, Franklin Lakes, USA). Prior to the cytofluorometric measurement, about 5×10^5 cells were washed with phosphate buffered saline (PBS), fixed in 70% ethanol, washed again with PBS and treated with 100 μg RNAse A/50 μg propidium iodide per ml for 10 minutes to stain cellular DNA. The percentage of cells in the various cell cycle positions were calculated using a software package from the same manufacturer.

[11] = test system: HepG2 or PLC cells; experiment: BrdU incorporation in cultured cells; assay type: cell-based, human; conditions: 1 μM, 24 hours
Description: BrdU incorporation into cell nuclei directly indicates cell proliferation. Cultured cells were grown in medium containing 10 μM 5-bromo-2′-deoxy-uridine (BrdU) for 1 hour. After removing labeling medium, cells were fixed and DNA denatured with a fixing/denaturing solution containing 2 M HCl for 30 minutes at 37° C. To analyze BrdU incorporation in vivo, 200 μl Ringer solution containing 1 mg BrdU was intraperitoneally injected into xenografted mice 2 hours prior to analysis. Mice were sacrificed and tumor tissue was fixed in 4% formaldehyde and processed for immunohistochemistry. The incorporation of BrdU into cellular DNA was detected using a monoclonal anti-BrdU antibody (Sigma, St. Louis, USA) followed by incubation with a peroxidase-conjugated secondary antibodies (Calbiochem, LaJolla, USA) at dilutions of 1:10,000.

In the case of `NC1CCC(Nc2nc(NCc3ccc(-c4ccco4)nc3)c3ncn(C4CCCC4)c3n2)CC1` (stereo not shown) [BP14, N^2-(4-amino-cyclohexyl)-9-cyclopentyl-N^6-(6-furan-2-yl-pyridin-3-ylmethyl)-9H-purine-2,6-diamine], the “reduction of clonogenic growth behavior” value [1] is reported as “more than 15 fold”, the IC50 [2] is reported as 20 nM and the IC50 [3] is reported as 80 nM. It also gave an IC50 [4] of 120 nM, an IC50 [5] of 480 nM and an IC50 [6] of 20100 nM. The “level of anti-apoptotic protein Mcl-1” value [7] was “large dose-dependent decrease”, the IC50 ([8]; control, read-out: IC50 for BP14, Hep3B) was 530 nM and the IC50 ([8]; long-term exposure at 1/16 IC50, read-out: IC50 for BP14, Hep3B) was 420 nM. It also gave an IC50 ([8]; long-term exposure at ¼ IC50, read-out: IC50 for BP14, Hep3B) of 450 nM, an IC50 ([8]; long-term exposure at ½ IC50, read-out: IC50 for BP14, Hep3B) of 800 nM and an IC50 ([8]; long-term exposure at ⅛ IC50, read-out: IC50 for BP14, Hep3B) of 380 nM. For the same molecule, the IC50 ([9]; HepG2, control) was 320 nM, the IC50 ([9]; HepG2, long-term exposure at 1/16 IC50) was 270 nM and the IC50 ([9]; HepG2, long-term exposure at ¼ IC50) was 450 nM. The IC50 ([9]; HepG2, long-term exposure at ½ IC50) was 590 nM, the IC50 ([9]; HepG2, long-term exposure at ⅛ IC50) was 390 nM and the cell cycle distribution [10] was “accumulation of HepG2 and PLC cells in the G2 phase”. The “decrease of BrdU incorporation as compared to control” value [11] was “more than 2 fold”.
